Results reported in PMC11510499, “Mechanism-Based Allylic Carbasugar Chlorides That Form Covalent Intermediates with α- and β-Galactosidases” (Molecules, 2024).
“Also recorded” adds a separate entry of the source.

Experiments:
Type in all cases: biochemical
[1] = biological target: T1, A. oryzae GH35 β-galactosidase (LacA) (Aspergillus oryzae, UniProt Q2UCU3); assay: Reactivation kinetics of covalently inhibited A. oryzae β-galactosidase (LacA); conditions: 50 mM sodium acetate buffer, pH 4.5, 0.1% BSA, 37 °C; for t1/2: half-life of covalent intermediate
T1 construct: purchased Sigma
T1 sequence (Q2UCU3 19-1005): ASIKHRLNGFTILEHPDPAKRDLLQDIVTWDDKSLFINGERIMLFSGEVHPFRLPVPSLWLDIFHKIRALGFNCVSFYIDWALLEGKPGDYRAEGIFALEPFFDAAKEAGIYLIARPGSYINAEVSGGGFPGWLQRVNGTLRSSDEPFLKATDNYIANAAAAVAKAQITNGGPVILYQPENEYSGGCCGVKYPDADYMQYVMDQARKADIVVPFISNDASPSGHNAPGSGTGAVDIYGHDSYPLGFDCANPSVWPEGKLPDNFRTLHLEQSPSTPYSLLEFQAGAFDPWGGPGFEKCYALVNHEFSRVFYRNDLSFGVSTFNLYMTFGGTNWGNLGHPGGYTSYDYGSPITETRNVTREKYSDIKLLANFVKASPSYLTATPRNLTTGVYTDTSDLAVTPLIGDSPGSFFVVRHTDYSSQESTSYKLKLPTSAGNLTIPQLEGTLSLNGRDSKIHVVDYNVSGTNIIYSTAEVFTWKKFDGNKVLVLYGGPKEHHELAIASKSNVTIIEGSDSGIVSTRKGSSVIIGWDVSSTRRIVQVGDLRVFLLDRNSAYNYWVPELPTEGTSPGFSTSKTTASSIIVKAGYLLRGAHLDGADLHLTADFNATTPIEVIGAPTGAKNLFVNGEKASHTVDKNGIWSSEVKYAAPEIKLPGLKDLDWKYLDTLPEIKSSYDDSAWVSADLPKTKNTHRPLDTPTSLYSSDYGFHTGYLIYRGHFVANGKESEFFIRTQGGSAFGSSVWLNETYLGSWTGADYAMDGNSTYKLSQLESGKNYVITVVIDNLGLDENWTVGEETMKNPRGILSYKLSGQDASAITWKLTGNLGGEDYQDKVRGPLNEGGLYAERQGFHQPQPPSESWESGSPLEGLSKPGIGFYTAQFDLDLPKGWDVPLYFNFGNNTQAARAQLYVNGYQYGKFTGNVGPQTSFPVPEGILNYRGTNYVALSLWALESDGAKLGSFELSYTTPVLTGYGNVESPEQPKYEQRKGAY
Description: (§1) In summary, all inhibitors that covalently label either Human α-galactosidase or Aspergillus oryzae β-galactosidase display linear second-order kinetics where the slopes of the graphs give kinact/Ki (Table 1 and Table 2). That is, no saturation binding is noted even up to inhibitor concentrations of 8 mM, i.e., Ki » 8 mM. […] As a result, reactivation kinetics were monitored by diluting a quantity of inhibited enzyme into a buffered solution containing substrate. Shown in Figure 3 are the measured gradients (time intervals of 100 s) from the absorbance versus time plot of the reactivation for GH35 A. oryzae β-galactosidase with 1–3.
(§2) We monitored a concentrated solution of enzyme and inhibitor at 37 °C until the measured enzyme activity dropped to under 5% of that initially measured. We then added a small volume (typically 0.5 µL) to a pre-equilibrated reactivation buffer containing substrate (200 µL). We then continuously monitored the release of either the chromophore or the fluorophore. We then calculated signal versus time gradient slope at uniform time intervals to give reaction rates. We fit these computed values to a standard first-order rate equation (Prism 10.0) to give us the first order reactivation rate constant (kreact).

[2] = biological target: T2, Human α-galactosidase (GalA) (Homo sapiens, UniProt P06280); assay: Covalent inhibition (inactivation) kinetics of Human α-galactosidase (GalA); conditions: for covalent inhibition observed: at 5 mM inhibitor, NIO = No inhibition observed, pH 4.6, 37 °C
T2 construct: purchased Biotechne
T2 sequence (P06280 32-429): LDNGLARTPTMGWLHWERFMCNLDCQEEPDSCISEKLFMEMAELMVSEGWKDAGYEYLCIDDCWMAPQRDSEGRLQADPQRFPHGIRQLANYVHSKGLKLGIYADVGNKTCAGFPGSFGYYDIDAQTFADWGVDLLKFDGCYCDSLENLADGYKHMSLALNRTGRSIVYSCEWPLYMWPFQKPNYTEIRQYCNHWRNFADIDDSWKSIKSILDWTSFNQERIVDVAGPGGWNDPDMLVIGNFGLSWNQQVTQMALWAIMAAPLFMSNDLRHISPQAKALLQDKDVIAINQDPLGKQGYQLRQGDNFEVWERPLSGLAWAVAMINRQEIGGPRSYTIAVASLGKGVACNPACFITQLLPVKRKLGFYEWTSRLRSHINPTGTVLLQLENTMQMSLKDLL
Description: (§3) Recombinant Human α-galactosidase (GalA) was purchased from Biotechne, and Aspergillus oryzae β-galactosidase was purchased from Sigma. We calculated the various rate constants for covalent inhibition of these two glycosidases by compounds 1 to 4 by use of either a classical jump dilution assay or a continuous assay protocol.
(§4) First, we incubated the enzyme using at least five different inhibitor concentrations in the appropriate buffer. We then ‘jump-diluted’ the inactivation mixture by adding 4 µL aliquots of the inhibition mixture to a pre-equilibrated 196 µL buffered solution containing substrate (see assay conditions section). We monitored the enzymatic activity using either UV-vis (Cary300, Agilent Technologies, Santa Clara, CA, United States) or fluorescence (Cary Eclipse). All rate constants for inhibition (kobs) were calculated using a standard nonlinear least squares fit of enzyme activity (%) versus time data to a first-order equation. We then used a standard Michaelis–Menten expression to evaluated kinact and kinact/Ki for covalent inhibition using a standard nonlinear least squares fitting routine. However, in cases where we noted insufficient saturation of inhibitor, we used a standard linear fit of the kobs versus covalent inhibitor concentration to obtain the inhibition rate constant kinact/Ki.
(§5) Second, we also used a continuous assay protocol in which we added the enzyme to a pre-equilibrated buffered mixture containing substrate and inhibitor. We monitored the reaction continuously until we noted that the rate of fluorophore (or chromophore) became linear following the initial first-order process. We repeated these experiments for at least five other inhibitor concentrations. We calculated the apparent rate constant (kapp) at every inhibitor concentration by fitting the progress curves to equation 1 (for UV-Vis or a similar equation for fluorescence data), where Vi is the initial velocity at t = 0 and Vf is the velocity at t = ∞ [31]. (1) Abs=νft+νi−νf/kapp1−e^−kappt
(§6) The kapp values versus inhibitor concentrations were then fit to a modified Michaelis–Menten expression for competitive inhibition (equation 2), which gives the second-order inhibition parameter kinact/Ki only. (2) kapp=kreact+kinact/KiI/1+S/Km
(§7) The release of 4-nitrophenol was monitored at 400 nm, while the release of 4-methylumbelliferone was monitored at 365 nm excitation and 445 emission wavelengths. All rate constants were determined by fitting experimental data on the computer program GraphPad Prism 10.0 (GraphPad Software, Boston, MA, USA).

[3] = biological target: T1, A. oryzae GH35 β-galactosidase (LacA); assay: Covalent inhibition (inactivation) kinetics of A. oryzae β-galactosidase (LacA); conditions: for kinact/Ki: 50 mM sodium acetate buffer
Description: as §3, §4, §5, §6, §7

[4] = biological target: T2, Human α-galactosidase (GalA); assay: Reactivation kinetics of covalently inhibited Human α-galactosidase (GalA); conditions: 50 mM sodium citrate buffer, pH 4.6, 50 mM NaCl, 0.1% BSA, 37 °C; for t1/2: half-life of covalent intermediate
Description: as §1, §2

Compound | kreact [1] | t1/2 [1] [min] | covalent inhibition observed [2] | kinact/KI ([3]; pH 4.5, 50 mM sodium acetate buffer, pH 4.5, 0.1% BSA, 37 °C) [M⁻¹ s⁻¹] | covalent inhibition observed ([3]; at 1 mM inhibitor, NIO = No inhibition observed, pH 4.5, 37 °C) | kinact/KI ([2]; pH 4.6, 50 mM sodium citrate buffer, pH 4.6, 50 mM NaCl, 0.1% BSA, 37 °C) [M⁻¹ s⁻¹] | kreact [4] | t1/2 [4] [min] | kinact/Ki ([3]; pH 4.5, 0.1% BSA, 37 °C) [M⁻¹ s⁻¹] | kinact/Ki ([2]; 50 mM sodium citrate buffer, pH 4.6, 50 mM NaCl, 0.1% BSA, 37 °C) [M⁻¹ s⁻¹]
O[C@@H]1[C@@H](O)[C@@H](O)C=C[C@H]1Cl [Compound 1, 5,5a-didehydro-5a-carba-β-L-arabino-hexopyranosyl chloride] | (2.5 ± 0.1) × 10^−3 s^−1 | 4.6 ± 0.2 | no measurable covalent inhibition; also recorded: NIO ^a at 5 mM | 17 ± 0.5 |  |  |  |  |  | 
O[C@@H]1[C@H](O)[C@@H](O)C=C[C@H]1Cl [Compound 4] |  |  | no measurable covalent inhibition; also recorded: NIO ^a at 5 mM |  | no activity; also recorded: NIO ^a at 1 mM |  |  |  |  | 
OC1C=CC(Cl)C(O)C1O (stereo not drawn) [Compound 2] | (2.6 ± 0.2) × 10^−3 s^−1 | 4.5 ± 0.3 |  |  |  | 0.25 ± 0.004 | (5.1 ± 0.2) × 10^−4 s^−1 | 22.5 ± 0.7 | 47 ± 2 | 
OC1C=CC(Cl)C(O)C1O (stereo not drawn) [Compound 3] | (2.6 ± 0.2) × 10^−3 s^−1 | 4.5 ± 0.3 |  |  |  |  | (4.9 ± 0.2) × 10^−4 s^−1 | 23.4 ± 0.9 | 2.7 ± 0.04 | 0.18 ± 0.01
